Data reported in patent US20220264878A1, “HERBICIDAL COMPOSITION CONTAINING R-TYPE PYRIDYLOXY CARBOXYLIC ACID DERIVATIVE AND USE THEREOF” (Qingdao Kingagroot Chemical Compound Co., Ltd., priority 2019, published 2022).

Key:
Assay in all cases: Post-emergence foliage spray, pot culture, fresh weight inhibition (Tables 1-48, 51-98, 101-148; 24 days)
Format in all cases: in vivo
Stellaria media = conditions: Table 105
Method in brief: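 Pot-grown weeds were thinned to 15 per pot (45 per treatment) and sprayed on foliage at the 5–6-leaf stage for grasses or the 6–7-leaf stage for broadleaves. Agents were dissolved in acetone with 0.1% Tween-80 and applied at 450 kg/ha spray volume and 0.3 MPa. Plants were then kept in a greenhouse. Above-ground fresh weight of survivors, with dead plants counted as zero, gave inhibition versus a solvent/emulsifier blank.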

Acalypha australis = system: Acalypha australis
Method in brief: (§1)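 Greenhouse pot plants (20–30 °C, natural light, 57–72% RH) were sprayed once on foliage at 450 kg/ha and 0.3 MPa, at the 5–6-leaf (grass) or 6–7-leaf (broadleaf) stage. Compounds were in acetone diluted with 0.1% Tween-80 water. Surviving shoots were weighed at 24 days; dead plants counted as zero.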

Ammannia arenaria = conditions: Table 103
Method in brief: as §1

Beckmannia syzigachne = system: Beckmannia syzigachne
Method in brief: as §1

Chloris virgata = system: Chloris virgata
Method in brief: as §1

Cirsium setosum = conditions: Table 111
Method in brief: as §1

Setaria faberi = system: Setaria faberi
Method in brief: as §1

Sinapis arvensis = system: Sinapis arvensis
Method in brief: as §1

Solanum nigrum = system: Solanum nigrum
Method in brief: as §1

Sonchus oleraceus L. = system: Sonchus oleraceus L.
Method in brief: as §1

Xanthium strumarium = system: Xanthium strumarium
Method in brief: as §1

Abutilon theophrasti = system: Abutilon theophrasti
Method in brief: as §1

Capsella bursa-pastoris = system: Capsella bursa-pastoris
Method in brief: as §1

Sonchus arvensis = system: Sonchus arvensis
Method in brief: as §1

Conyza Canadensis = system: Conyza Canadensis
Method in brief: as §1

Ipomoea purpurea = conditions: Table 98
Method in brief: as §1

Setaria glauca = conditions: Table 84
Method in brief: as §1

C[C@@H](Oc1nc(F)c(Cl)c(N)c1Cl)C(=O)[O-].[Na+] [Compound A3, A1 sodium salt]
Control effect (%) of A applied alone in corresponding dose (Stellaria media; 7.5 g a.i./ha): 34.1%
Control effect (%) of A applied alone in corresponding dose (Stellaria media; 15 g a.i./ha): 67.9%
Control effect (%) of A applied alone in corresponding dose (Acalypha australis; A 75 g a.i./ha): 20.7%
Control effect (%) of A applied alone in corresponding dose (Acalypha australis; A 150 g a.i./ha): 51.6%
Control effect (%) of A applied alone in corresponding dose (Ammannia arenaria; 75 g a.i./ha): 30.4%
Control effect (%) of A applied alone in corresponding dose (Ammannia arenaria; 150 g a.i./ha): 66.2%
Control effect (%) of A applied alone in corresponding dose (Beckmannia syzigachne; A 75 g a.i./ha): 23.0%
Control effect (%) of A applied alone in corresponding dose (Beckmannia syzigachne; A 150 g a.i./ha): 42.8%
Control effect (%) of A applied alone in corresponding dose (Chloris virgata; A 75 g a.i./ha): 22.0%
Control effect (%) of A applied alone in corresponding dose (Chloris virgata; A 150 g a.i./ha): 48.3%
Control effect (%) of A applied alone in corresponding dose (Cirsium setosum; 30 g a.i./ha): 31.5%
Control effect (%) of A applied alone in corresponding dose (Cirsium setosum; 60 g a.i./ha): 64.3%
Control effect (%) of A applied alone in corresponding dose (Setaria faberi; A 30 g a.i./ha): 32.5%
Control effect (%) of A applied alone in corresponding dose (Setaria faberi; A 60 g a.i./ha): 55.4%
Control effect (%) of A applied alone in corresponding dose (Sinapis arvensis; A 15 g a.i./ha): 33.2%
Control effect (%) of A applied alone in corresponding dose (Sinapis arvensis; A 30 g a.i./ha): 72.7%
Control effect (%) of A applied alone in corresponding dose (Solanum nigrum; A 75 g a.i./ha): 16.9%
Control effect (%) of A applied alone in corresponding dose (Solanum nigrum; A 150 g a.i./ha): 37.5%
Control effect (%) of A applied alone in corresponding dose (Sonchus oleraceus L.; A 75 g a.i./ha): 33.8%
Control effect (%) of A applied alone in corresponding dose (Sonchus oleraceus L.; A 150 g a.i./ha): 55.5%
Control effect (%) of A applied alone in corresponding dose (Xanthium strumarium; A 7.5 g a.i./ha): 40.8%
Control effect (%) of A applied alone in corresponding dose (Xanthium strumarium; A 15 g a.i./ha): 77.2%

CC(C)N1C(=O)c2ccccc2NS1(=O)=O [bentazone]
Control effect (%) of B applied alone in corresponding dose (Abutilon theophrasti; bentazone 18.75 g a.i./ha): 5.9%
Control effect (%) of B applied alone in corresponding dose (Abutilon theophrasti; bentazone 37.5 g a.i./ha): 11.8%
Control effect (%) of B applied alone in corresponding dose (Abutilon theophrasti; bentazone 75 g a.i./ha): 49.0%
Control effect (%) of B applied alone in corresponding dose (Abutilon theophrasti; bentazone 150 g a.i./ha): 69.1%
Control effect (%) of B applied alone in corresponding dose (Xanthium strumarium; B 18.75 g a.i./ha): 10.9%
Control effect (%) of B applied alone in corresponding dose (Xanthium strumarium; B 37.5 g a.i./ha): 16.1%
Control effect (%) of B applied alone in corresponding dose (Xanthium strumarium; B 75 g a.i./ha): 46.6%
Control effect (%) of B applied alone in corresponding dose (Xanthium strumarium; B 150 g a.i./ha): 76.5%

Cc1nn(C)cc1C(=O)Oc1c(C(=O)c2ccc(C(F)(F)F)cc2S(C)(=O)=O)c(C)nn1C [bipyrazone]
Control effect (%) of B applied alone in corresponding dose (Capsella bursa-pastoris; bipyrazone 18.75 g a.i./ha): 2.9%
Control effect (%) of B applied alone in corresponding dose (Capsella bursa-pastoris; bipyrazone 37.5 g a.i./ha): 12.9%
Control effect (%) of B applied alone in corresponding dose (Capsella bursa-pastoris; bipyrazone 75 g a.i./ha): 51.1%
Control effect (%) of B applied alone in corresponding dose (Capsella bursa-pastoris; bipyrazone 150 g a.i./ha): 80.3%
Control effect (%) of B applied alone in corresponding dose (Sinapis arvensis; B 1.875 g a.i./ha): 9.9%
Control effect (%) of B applied alone in corresponding dose (Sinapis arvensis; B 3.75 g a.i./ha): 23.8%
Control effect (%) of B applied alone in corresponding dose (Sinapis arvensis; B 7.5 g a.i./ha): 50.8%
Control effect (%) of B applied alone in corresponding dose (Sinapis arvensis; B 15 g a.i./ha): 83.7%

CCOc1nc(F)cc2nc(S(=O)(=O)Nc3c(Cl)cccc3C(=O)OC)nn12 [cloransulam-methyl]
Control effect (%) of B applied alone in corresponding dose (Cirsium setosum; 1.875 g a.i./ha): 13.6%
Control effect (%) of B applied alone in corresponding dose (Cirsium setosum; 3.75 g a.i./ha): 23.1%
Control effect (%) of B applied alone in corresponding dose (Cirsium setosum; 7.5 g a.i./ha): 53.8%
Control effect (%) of B applied alone in corresponding dose (Cirsium setosum; 15 g a.i./ha): 71.9%
Control effect (%) of B applied alone in corresponding dose (Sonchus arvensis; cloransulam-methyl 1.875 g a.i./ha): 6.5%
Control effect (%) of B applied alone in corresponding dose (Sonchus arvensis; cloransulam-methyl 3.75 g a.i./ha): 15.0%
Control effect (%) of B applied alone in corresponding dose (Sonchus arvensis; cloransulam-methyl 7.5 g a.i./ha): 52.8%
Control effect (%) of B applied alone in corresponding dose (Sonchus arvensis; cloransulam-methyl 15 g a.i./ha): 72.9%

CC(C)N(C)S(=O)(=O)NC(=O)c1cc(-n2c(=O)cc(C(F)(F)F)n(C)c2=O)c(F)cc1Cl [saflufenacil]
Control effect (%) of B applied alone in corresponding dose (Conyza Canadensis; saflufenacil 3.75 g a.i./ha): 3.0%
Control effect (%) of B applied alone in corresponding dose (Conyza Canadensis; saflufenacil 7.5 g a.i./ha): 11.9%
Control effect (%) of B applied alone in corresponding dose (Conyza Canadensis; saflufenacil 15 g a.i./ha): 39.2%
Control effect (%) of B applied alone in corresponding dose (Conyza Canadensis; saflufenacil 30 g a.i./ha): 76.5%
Control effect (%) of B applied alone in corresponding dose (Ipomoea purpurea; 3.75 g a.i./ha): 7.9%
Control effect (%) of B applied alone in corresponding dose (Ipomoea purpurea; 7.5 g a.i./ha): 16.0%
Control effect (%) of B applied alone in corresponding dose (Ipomoea purpurea; 15 g a.i./ha): 41.3%
Control effect (%) of B applied alone in corresponding dose (Ipomoea purpurea; 30 g a.i./ha): 75.9%
Control effect (%) of B applied alone in corresponding dose (Sonchus oleraceus L.; B 3.75 g a.i./ha): 5.4%
Control effect (%) of B applied alone in corresponding dose (Sonchus oleraceus L.; B 7.5 g a.i./ha): 13.9%
Control effect (%) of B applied alone in corresponding dose (Sonchus oleraceus L.; B 15 g a.i./ha): 40.9%
Control effect (%) of B applied alone in corresponding dose (Sonchus oleraceus L.; B 30 g a.i./ha): 76.6%

Cc1c(C(=O)c2cnn(C)c2O)ccc(S(C)(=O)=O)c1C1=NOCC1 [topramezone]
Control effect (%) of B applied alone in corresponding dose (Setaria faberi; B 1.875 g a.i./ha): 3.2%
Control effect (%) of B applied alone in corresponding dose (Setaria faberi; B 3.75 g a.i./ha): 11.7%
Control effect (%) of B applied alone in corresponding dose (Setaria faberi; B 7.5 g a.i./ha): 36.5%
Control effect (%) of B applied alone in corresponding dose (Setaria faberi; B 15 g a.i./ha): 75.4%
Control effect (%) of B applied alone in corresponding dose (Setaria glauca; 1.875 g a.i./ha): 7.3%
Control effect (%) of B applied alone in corresponding dose (Setaria glauca; 3.75 g a.i./ha): 10.6%
Control effect (%) of B applied alone in corresponding dose (Setaria glauca; 7.5 g a.i./ha): 35.8%
Control effect (%) of B applied alone in corresponding dose (Setaria glauca; 15 g a.i./ha): 72.3%
